Patent US20050215490A1, “Polyene polyketides and methods of treating bacterial infections” (Ecopia BioSciences, Inc., priority 2003, published 2005)
In brackets after ≈: the same amount, converted by molar mass. Read-outs that look alike come from different tables or passages of the source.

Tests used:
Type in all cases: cell-based
[1] = in vitro; settings: sheep
Method: A. Toxicity: Acute toxicities were determined using CD-1 female mice (supplied by Charles River Laboratories, Wilmington, Mass.) having a bodyweight of 18-25 g, and about 6 weeks of age. Compounds 1 and 2 at doses ranging from 1 to 70 mg/kg (formulated in 20% propylene glycol/water for a total volume of 10 μL/g of weight) were administered intraperitoneal (i.p.) and intravenous (i.v.) to groups of 5 mice (5 mice per concentration, per mode of administration). Two groups of 3 mice were injected with vehicle only. Mice were observed immediately after injection, within 4 hours and once a day for the subsequent days. Acute toxicity studies of Compound 1 in mice indicated no observable effect and high dose tolerability: 70 mg/kg intraperitoneal and 50 mg/kg intravenous (an MTD of 250 mg/kg was also determined by oral administration). […] In vitro Haemolytic activity results are also shown in Table 7, along with the in vivo toxicity and efficacy of Compound 1.

[2] = tested on: Staphylococcus aureus NRRL B-313 (ATCC™ 6538P); test: MIC at different pH
Method: Antibacterial activitiy of Compounds.3, 4, 5, 6 and 7 are accomplished using the same method in a panel of bacterial strains and Vancomycin as positive control.
Antibacterial efficacy of Compounds 1, 2, 3, 4, 5 and 6 on bacterial strain Staphylococcus aureus NRRL B-313 (ATCC™ 6538P) was determined at different pH concentrations.

[3] = tested on: Bacillus megaterium (ATCC™ 14581); test: MIC, broth microdilution (NCCLS M7-A5); settings: Priestia megaterium, ATCC14581, 18 h
Method: (§1) Antibacterial activity of Compounds 1 and 2 (Table 4) was measured by determining the minimal inhibitory concentration (MIC) necessary to obtain a complete inhibition of bacteria growth in eight indicator strains, namely Staphylococcus aureus (ATCC™ 6538P), Staphylococcus aureus MRS3 (ATCC™ 700699), Staphylococcus epidermidis (ATCC™ 12228), Bacillus subtilis (ATCC™ 23857), Bacillus megaterium (ATCC™ 14581), Enterococcus faecalis VRE-1 (ATCC™ 29212), Enterococcus faecalis VRE-2 (ATCC™ 51299) and Micrococcus luteus (ATCC™ 9341). Indicator strains preparation and MIC determination were performed according to the National Committee for Clinical Laboratory Standards (NCCLS) guideline M7-A5 Methods for Dilution Antimicrobial Susceptibility Tests for Bacteria That Grow Aerobically; Approved Standard-Fifth Edition. (NCCLS document M7-A5, ISBN 1-56238-394-9; NCCLS, 940 West Valley Road, Suite 1400, Wayne, Pa. 19087-1898 USA), the content of which is incorporated herein by reference.
(§2) Compounds 1 and 2 were prepared as 100× stock solution in DMSO, with concentrations ranging from 3.2 mg/ml to 0.00625 mg/ml (a two-fold dilution series over […]). An aliquot of each 100× stock solution was diluted 50-fold in test medium described below to give a set of ten (10) 2× solutions ranging from 64 to 0.125 μg/mL. 50 μl of each of the ten 2× solutions was aliquoted into the corresponding well of a 12-well row, with the final well reserved for medium alone control. Each test was made in duplicate.
(§3) Vancomycin (Sigma™) used as positive control compounds, was prepared as 2× stock solutions in sterile, double-distilled water (ddH2O) ranging from 64 μg/ml to […] (a two-fold dilution series over 10 points). An aliquot of 50 μl corresponding to each concentration (at 2×) was then transferred to 96-well microplates to obtain a series of eleven two-fold dilutions.
(§4) An isolated colony of each of the eight indicator strains was used to inoculate tubes containing 3 ml of test medium. Mueller-Hinton test medium was used for Staphylococcus aureus (ATCC™ 6538P), Staphylococcus aureus MRS3 (ATCC™ 700699), Staphylococcus epidermidis (ATCC™ 12228), Bacillus subtilis (ATCC™ 23857), Bacillus megaterium (ATCC™ 14581) and Micrococcus luteus (ATCC™ 9341) indicator strains, and BHI (Brain-Heart Infusion broth) test medium was used for Enterococcus faecalis VRE-1 (ATCC™ 29212) and Enterococcus faecalis VRE-2 (ATCC™ 51299) indicator strains. Cells were grown overnight at 28° C. with shaking. Inoculum density for each indicator strain was adjusted to OD600=0.1 in 5 ml 0.85% saline, then further diluted 1/100 in appropriate medium. 50 μl of the final dilution (in test medium) of each indicator strain was added to each well of a 12-well row. This brings the final dilution of the test article or control compound in solution to 1×. The final inoculum is approximately 5×10^5 CFU/ml.
(§5) The indicator strains were incubated with 11 concentrations of each of Compounds 1 and 2, Vancomycin (Sigma™) control compound and one media alone control. For MIC determination, assay plates were incubated at 35° C. for 18 hours.

[4] = tested on: Bacillus subtilis (ATCC™ 23857); test: MIC, broth microdilution (NCCLS M7-A5); settings: ATCC23857, 18 h
Method: as §1, §2, §3, §4, §5

[5] = tested on: Enterococcus faecalis VRE-1 (ATCC™ 29212); test: MIC, broth microdilution (NCCLS M7-A5); settings: 18 h
Method: as §1, §2, §3, §4, §5

[6] = tested on: Enterococcus faecalis VRE-2 (ATCC™ 51299); test: MIC, broth microdilution (NCCLS M7-A5); settings: 18 h
Method: as §1, §2, §3, §4, §5

[7] = tested on: Micrococcus luteus (ATCC™ 9341); test: MIC, broth microdilution (NCCLS M7-A5); settings: ATCC9341, 18 h
Method: as §1, §2, §3, §4, §5

[8] = tested on: Staphylococcus aureus (ATCC™ 6538P); test: MIC, broth microdilution (NCCLS M7-A5); settings: ATCC6538P, 18 h
Method: as §1, §2, §3, §4, §5

[9] = tested on: Staphylococcus aureus MRS3 (ATCC™ 700699); test: MIC, broth microdilution (NCCLS M7-A5); settings: ATCC700699, 18 h
Method: as §1, §2, §3, §4, §5

[10] = tested on: Staphylococcus epidermidis (ATCC™ 12228); test: MIC, broth microdilution (NCCLS M7-A5); settings: ATCC12228, 18 h
Method: as §1, §2, §3, §4, §5

[11] = S. aureus ATCC 6538P, pH 5.0, read-out: MIC
[12] = S. aureus ATCC 6538P, pH 6.0, read-out: MIC
[13] = S. aureus ATCC 6538P, pH 7.0, read-out: MIC

| MIC [2, 11] [µg/mL] | MIC [2, 12] [µg/mL] | MIC [2, 13] [µg/mL] | SMILES | further results |
| --- | --- | --- | --- | --- |
|  |  |  | C[C@@H]1[C@H](O)[C@@H](C)/C=C/C=C/C=C/C=C/C=C/C=C/C=C/[C@H](O[C@@H]2O[C@H](C)[C@@H](O)[C@H](N)[C@@H]2O)C[C@@H]2O[C@](O)(C[C@@H](O)C[C@@H](O)[C@H](O)CC[C@@H](O)C[C@@H](O)CC(=O)O[C@H]1C)C[C@H](O)[C@H]2C(=O)O [Amphotericin, reference compound] | EC50 [1]: 3 µg/mL (≈ 3.25 µM) |
| 2 (≈ 2.35 µM) | 4 to 8 (≈ 4.7 to 9.4 µM) | 16 (≈ 18.8 µM) | COC(=O)C1OC(OC(/C(C)=C/C(C)CCC/C=C/C(C)C/C=C/CCCN(C)C(=N)N)C(C)/C=C/C=C/C=C/C=C/C=C(\C)C(=O)NC2=C(O)CCC2=O)C(O)C(O)C1O (stereo not shown) [Compound 3, 3,4,5-trihydroxy-6-[1-[11-(2-hydroxy-5-oxocyclopent-1-enylcarbamoyl)-1-methyldodeca-2,4,6,8,10-pentaenyl]-2,4,10-trimethyl-16-(N-methyl-guanidino)-hexadeca-2,8,12-trienyloxy]-tetrahydropyran-2-carboxylic acid methyl ester] |  |
| 2 (≈ 2.35 µM) | 2 (≈ 2.35 µM) | 2 (≈ 2.35 µM) | COC1=C(NC(=O)/C(C)=C/C=C/C=C/C=C/C=C/C(C)C(OC2OC(C(=O)O)C(O)C(O)C2O)/C(C)=C/C(C)CCC/C=C/C(C)C/C=C/CCCN(C)C(=N)N)C(=O)CC1 (stereo not shown) [Compound 4, 3,4,5-trihydroxy-6-[1-[11-(2-methoxy-5-oxo-cyclopent-1-enylcarbamoyl)-1-methyldodeca-2,4,6,8,10-pentaenyl]-2,4,10-trimethyl-16-(N-methyl-guanidino)-hexadeca-2,8,12-trienyloxy]-tetrahydropyran-2-carboxylic acid] |  |
| 2 (≈ 2.31 µM) | 4 (≈ 4.62 µM) | 4 (≈ 4.62 µM) | COC(=O)C1OC(OC(C(C)=CC(C)CCCC=CC(C)CC=CCCCN(C)C(=N)N)C(C)C=CC=CC=CC=CC=C(C)C(=O)NC2=C(OC)CCC2=O)C(O)C(O)C1O (stereo not shown) [Compound 5, 3,4,5-trihydroxy-6-[1-[11-(2-methoxy-5-oxo-cyclopent-1-enylcarbamoyl)-1-methyldodeca-2,4,6,8,10-pentaenyl]-2,4,10-trimethyl-16-(N-methyl-guanidino)-hexadeca-2,8,12-trienyloxy]-tetrahydropyran-2-carboxylic acid methyl ester] |  |
| 0.25 (≈ 0.284 µM) | 0.5 (≈ 0.569 µM) | 2 (≈ 2.28 µM) | CC(=O)NC(=N)N(C)CCC/C=C/CC(C)/C=C/CCCC(C)/C=C(\C)C(OC1OC(C(=O)O)C(O)C(O)C1O)C(C)/C=C/C=C/C=C/C=C/C=C(\C)C(=O)NC1=C(O)CCC1=O (stereo not shown) [Compound 6, 6-{16-(N′-acetyl-N-methylguanidino)-1-[11-(2-hydroxy-5-oxocyclopent-1-enylcarbamoyl)-1-methyldodeca-2,4,6,8,10-pentaenyl]-2,4,10-trimethylhexadeca-2,8,12-trienyloxy}-3,4,5-trihydroxytetrahydropyran-2-carboxylic acid] |  |
|  |  | 32 to 64 (≈ 43.1 to 86.3 µM) | C\C(=C/C=C/C=C/C=C/C=C/C(C)C(OC1OC(C(=O)O)C(O)C(O)C1O)/C(C)=C/C(C)CCC/C=C/C(C)C/C=C/CCCN(C)C(=N)N)C(=O)O (stereo not shown) [Compound 7, 6-[1-(11-carboxy-1-methyldodeca-2,4,5,8,10-pentaenyl)-2,4,10-trimethyl-16-(N-methylguanidino)-hexadeca-2,8,12-trienyloxy]-3,4,5-trihydroxy-tetrahydropyran-2-carboxylic acid] |  |
|  |  |  | CN[C@H](CC(C)C)C(=O)N[C@H]1C(=O)N[C@@H](CC(N)=O)C(=O)N[C@H]2C(=O)N[C@H]3C(=O)N[C@H](C(=O)N[C@H](C(=O)O)c4cc(O)cc(O)c4-c4cc3ccc4O)[C@H](O)c3ccc(c(Cl)c3)Oc3cc2cc(c3O[C@@H]2O[C@H](CO)[C@@H](O)[C@H](O)[C@H]2O[C@H]2C[C@](C)(N)[C@H](O)[C@H](C)O2)Oc2ccc(cc2Cl)[C@H]1O [Vancomycin, reference compound] | MIC [3]: 0.125 µg/mL (≈ 0.0863 µM); MIC [4]: 0.25 µg/mL (≈ 0.173 µM); MIC [5]: 4 µg/mL (≈ 2.76 µM); MIC [6]: 8 to 16 µg/mL (≈ 5.52 to 11 µM); MIC [7]: 1 µg/mL (≈ 0.69 µM); MIC [8]: 2 µg/mL (≈ 1.38 µM); MIC [9]: 4 µg/mL (≈ 2.76 µM); MIC [10]: 2 µg/mL (≈ 1.38 µM); MIC ([2]; pH 5): 1 µg/mL (≈ 0.69 µM); MIC ([2]; pH 6): 1 µg/mL (≈ 0.69 µM); MIC ([2]; pH 7): 1 µg/mL (≈ 0.69 µM) |
